Source: PMC6836419, “In vitro and in silico anti-dengue activity of compounds obtained from Psidium guajava through bioprospecting” (BMC Complementary and Alternative Medicine, 2019)
≈ marks a conversion by molar mass, not a printed value. Like-named read-outs stand apart in the source and are kept apart here.

What was measured:
DENV-2 = conditions: cited from earlier work
[1] = MTT cytotoxicity (CC50) in VERO cells; assay type: cell-based; conditions: African green monkey (Cercopithecus aethiops)
Experimental: The CC50 was determined via the 3-(4,5-dimethyl-2-thiazolyl)-2,5-diphenyl-2H-tetrazolium bromide) (MTT, Sigma-Aldrich) method. For this, 2.5 × 10^4 VERO cells were seeded in 96-well plates for 24 h. […] After the incubation period, an MTT solution (0.5 mg/mL) was added to the cultures, which were then incubated for an additional 3 h at 37 °C. Finally, dimethyl sulfoxide was added, and the absorbance was read at 450 nm in a Bio-Rad Benchmark® microplate reader. Cultures without extract, fractions, or compounds were processed as positive controls for viability. […] Each experimental condition was tested in triplicate in two independent experiments (n = 6).
To determine the CC50 and EC50, a regression analysis was performed with Probit Software. The SI of each molecule was determined from the relationship between the CC50 and EC50, using the formula SI = CC50/EC50. To compare the number of infectious viral particles released between the cells treated with each fraction or compound (for both the pre- and post-treatment strategies) and the untreated cells, Student’s t-test was used. […] Each experimental condition was tested in triplicate in two independent experiments (n = 6) to guaranty the statistical analysis and the figures show the average of those experiments.

DENV-2/NG [2] = test: EC50 determination: VERO cells infected with DENV-2/NG in the presence of treatment, multiwell plate focus assay; assay type: cell-based; conditions: for EC50: Dengue virus, DENV2, Vero, read-out: Effective concentration 50% (EC50); for Selectivity index (SI): SI = CC50/EC50, VERO cells infected with DENV-2/NG
Experimental: The SI of each ethanolic extract, fraction, or compound was calculated from the relationship between the cytotoxic concentration 50% (CC50) and effective concentration 50% (EC50). The CC50 was determined via the 3-(4,5-dimethyl-2-thiazolyl)-2,5-diphenyl-2H-tetrazolium bromide) (MTT, Sigma-Aldrich) method. For this, 2.5 × 10^4 VERO cells were seeded in 96-well plates for 24 h. Subsequently, serial dilutions of the ethanolic extracts (7.8 μg/mL to 1000 μg/mL), fractions (6.25 to 400 μg/mL), and characterized compounds (6.25 to 400 μg/mL) were performed and incubated with the cells for 48 h. After the incubation period, an MTT solution (0.5 mg/mL) was added to the cultures, which were then incubated for an additional 3 h at 37 °C. Finally, dimethyl sulfoxide was added, and the absorbance was read at 450 nm in a Bio-Rad Benchmark® microplate reader. Cultures without extract, fractions, or compounds were processed as positive controls for viability. The CC50 was calculated as the extract concentration that reduced cell viability by 50% using regression analysis (Probit software). Each experimental condition was tested in triplicate in two independent experiments (n = 6). To calculate the EC50, 2.5 × 10^4 VERO cells were seeded in 96-well plates for 24 h. At 24 h, serial dilutions of each ethanolic extract (7.8 μg/mL to 1000 μg/mL), fraction (6.25 to 400 μg/mL), and characterized compound (6.25 to 400 μg/mL) were mixed with the DENV-2/NG strain (at a multiplicity of infection (MOI = 1) and added to the cell monolayers for 2 h. At 2 h post-inoculation (hpi), the mixtures were removed, and the same serial dilutions of the extracts, fractions, or compounds were added again and incubated for 24 h. Finally, the supernatants were collected and stored at − 70 °C until performing the multiwell plate focus assay.
(§1) A total of 2.5 × 10^4 cells/well were seeded in 96-well plates. The cells were inoculated the following day with serial dilutions (10^− 1 to 10^− 6) of the supernatants from the EC50 experiments for 2 h. Next, the inoculum were removed, and 1.5% carboxymethylcellulose (Sigma-Aldrich) prepared in DMEM (Gibco®) supplemented with 2% FCS (Gibco®) was added, followed by incubation at 37 °C in a 5% CO 2 atmosphere. On the third day, the cells were fixed with a methanol-acetone (1:1) solution for 10 min, washed three times with PBS, and permeabilized with 0.1% Triton X-100 for 30 min, after which nonspecific site blocking was performed with 10% FBS in PBS. Then, DENV anti-envelope monoclonal antibody (mAb) was diluted 1:500 with PBS containing 10% FCS (Gibco®) was added, followed by incubation for 1 h at 37 °C. After washing with PBS, the plates were incubated for 30 min with an anti-mouse IgG secondary antibody conjugated to peroxidase. Finally, the reactions were stained with 3-amino-9-ethylcarbazole (AEC, Sigma-Aldrich), and the number of foci in each well were counted.
To determine the CC50 and EC50, a regression analysis was performed with Probit Software. The SI of each molecule was determined from the relationship between the CC50 and EC50, using the formula SI = CC50/EC50. To compare the number of infectious viral particles released between the cells treated with each fraction or compound (for both the pre- and post-treatment strategies) and the untreated cells, Student’s t-test was used. All statistical analyses were performed using the Prism® 7.01 for Windows™ package (GraphPad Software, San Diego, CA), considering differences statistically significant at p < 0.05 in all cases. Each experimental condition was tested in triplicate in two independent experiments (n = 6) to guaranty the statistical analysis and the figures show the average of those experiments.

DENV-2/NG [3] = test: Antiviral effect after virus cell entry (post-treatment strategy); assay type: cell-based; conditions: for inhibition at 50 µg/mL: Dengue virus, DENV2, Vero, 48 h; for Viral inhibition percentage, post-treatment strategy: VERO cells infected with DENV-2/NG MOI = 1, then compounds 50 μg/mL for 48 h
Experimental: as §1
A total of 2.5 × 10^4 VERO cells were seeded in 24-well plates for 24 h, and a viral inoculum (DENV-2/NG at an MOI = 1) was then added and incubated for 2 h. Subsequently, the inoculum was removed, and the fractions (100 μg/mL) or characterized compounds (50 μg/mL) were added and incubated with the cells for an additional 48 h (post-treatment strategy). Next, the supernatants were collected and stored at − 70 °C until further processing via the multiwell plate focus assay. For each fraction or compound, two independent experiments were performed each with two replicates (n = 4). Suramin served as the positive control for viral inhibition.
(§2) Fig. 4 Antiviral effects of the compounds derived from the Pg- YP-I-22C fraction on some steps of the DENV replication cycle. The cells were treated with the compounds for 48 h and then infected with DENV (MOI = 1). This infection strategy (pre-treatment) is represented by the dark bars. In addition, independent cell cultures were infected with DENV (MOI = 1) and then treated with the compounds (post-treatment strategy; indicated by clear bars). The error bars correspond to the SEM. The asterisks indicate cases with statistically significant differences (Student’s t-test; p < 0.05) in relation to the control without treatment

DENV-2/NG [4] = test: Antiviral effect on virus cell entry (pre-treatment strategy); assay type: cell-based; conditions: for inhibition at 50 µg/mL: Dengue virus, DENV2, Vero
Experimental: as §1
A total of 2.5 × 10^4 VERO cells were seeded in 24-well plates for 24 h, and the fractions (100 μg/mL) or characterized compounds (50 μg/mL) were then added and incubated with the cells for an additional 24 h (pre-treatment strategy). Subsequently, treatment was withdrawn, and a viral inoculum (DENV-2/NG at an MOI = 1) was added and incubated for 2 h. Subsequently, the virus was removed, and fresh medium was added for an additional 48 h, after which the supernatants were collected and stored at − 70 °C until further processing via the multiwell plate focus assay. For each fraction and compound, two independent experiments were performed each with two replicates (n = 4). Heparin (Sigma-Aldrich) served as the positive control for viral inhibition.
as §2

[5] = VERO cells, 48 h incubation, MTT, unit given, not in Table 1, read-out: Cytotoxic concentration 50% (CC50)
[6] = read-out: Viral inhibition percentage, post-treatment strategy, VERO cells infected with DENV-2/NG MOI = 1, then compounds 50 μg/mL for 48 h, plate focus assay
[7] = read-out: Viral inhibition percentage, pre-treatment strategy, compounds 50 μg/mL added to VERO cells before infection with DENV-2/NG MOI = 1, plate focus assay

Row | SMILES | CC50 at 48 h [1, 5] [µg/mL] | EC50 (DENV-2/NG [2]) [µg/mL] | Selectivity index (SI) (DENV-2/NG [2]) | inhibition at 50 µg/mL (DENV-2/NG [3]; [6]) [%] | further results
1 | CC[C@H]1CC2CN3CCc4c([nH]c5ccc(OC)cc45)[C@](C(=O)OC)(C2)[C@H]13 (stereo in doubt) [voacangine] |  |  |  |  | Inhibition of infection in vitro by plant-derived compounds (DENV-2): greater than 50%
2 | C[C@@H]1O[C@@H](O[C@H]2[C@H](Oc3cc(O)c4c(c3)O[C@H](c3ccc(O)cc3)CC4=O)O[C@H](CO)[C@@H](O)[C@@H]2O)[C@H](O)[C@H](O)[C@H]1O [Naringin, naringin] | 647 (≈ 1110 µM) | 47.9 | 13.5 | 64.5 | 
3 | O=C(O)c1cc(O)c(O)c(O)c1 [Gallic Acid, gallic acid] | 543 (≈ 3190 µM) | 25.8 | 21.1 | 67.3 | inhibition at 50 µg/mL (DENV-2/NG [4]; [7]): 52.6%
4 | Oc1cc(O)c2c(c1)OC(c1ccc(O)c(O)c1)C(O)C2 (stereo not drawn) [Catechin, catechin] | 833 (≈ 2870 µM) | 33.7 | 24.8 | 91.8 | inhibition at 50 µg/mL (DENV-2/NG [4]; [7]): 100%; Viral inhibition percentage, pre-treatment strategy (DENV-2/NG [4]; compounds 50 μg/mL added to VERO cells before infection with DENV-2/NG MOI = 1, plate focus assay): greater than 90%; Viral inhibition percentage, post-treatment strategy (DENV-2/NG [3]; plate focus assay): greater than 90%
5 | Cc1ccc(C(=O)Nc2ccc(S(=O)(=O)O)c3cc(S(=O)(=O)O)cc(S(=O)(=O)O)c23)cc1NC(=O)c1cccc(NC(=O)Nc2cccc(C(=O)Nc3cc(C(=O)Nc4ccc(S(=O)(=O)O)c5cc(S(=O)(=O)O)cc(S(=O)(=O)O)c45)ccc3C)c2)c1 [SURAMIN, suramin, reference compound] |  |  |  |  | Viral inhibition percentage, post-treatment strategy (DENV-2/NG [3]; plate focus assay): better inhibition
6 | O=c1c(O)c(-c2ccc(O)c(O)c2)oc2cc(O)cc(O)c12 [Quercetin, quercetin] |  | 19.2 | 34.3 |  | CC50 at 48 h [1]: 660 µg/mL (≈ 2180 µM); inhibition at 50 µg/mL (DENV-2/NG [4]; read-out: Viral inhibition percentage, pre-treatment strategy): 50%; inhibition at 50 µg/mL (DENV-2/NG [3]; read-out: Viral inhibition percentage, post-treatment strategy): 100%
7 | C=C(C)[C@@H]1CC[C@]2(C)CC[C@]3(C)[C@H](CC[C@@H]4[C@@]5(C)CC[C@H](O)C(C)(C)[C@@H]5CC[C@]43C)[C@@H]12 [lupeol] |  |  |  |  | Inhibition of infection in vitro by plant-derived compounds (DENV-2): greater than 50%
